One may read the zone of inhibition as the extent of the growth-free halo in a diffusion test. Lower therefore signals little suppression of growth.

SMILES strings stand for the structures. Converted amounts (≈) assume the structure as drawn. “And” between values parts separate entries of the source, which are not always exact repeats. Equal values may be shown once.

These results are taken from paper PMC8348310, “Antioxidants Isolated from Elaeagnus umbellata (Thunb.) Protect against Bacterial Infections and Diabetes in Streptozotocin-Induced Diabetic Rat Model” (Molecules, 2021).

Assay [1] concerns Staphylococcus aureus. Put plainly: Agar well diffusion, zone of inhibition. Type of assay: cell-based. To be noted: 37 °C, 24 h; for Zone of Inhibition: 100 µg/mL. As for the experimental part: The antibacterial activity of the isolated compounds (morin, phloroglucinol, and 1-hexyl benzene) was determined using agar well diffusion method. Muller–Hinton agar media was prepared and autoclaved at 15 lbs pressure for 20 min and cooled to 45 °C. […] The entire wells were filled with 100 µL of the isolated compounds (stock solution: 1 mg/mL) using microtiter-pipette and allowed to diffuse at room temperature for 2 h. The plates were incubated at 37 °C for 24 h. In the center hole, Imipenem was added which served as positive control. Simultaneous, addition of an equal concentration of DMSO solvent instead of isolated compounds was used as blank. After incubation, the zones of inhibition were measured in millimeters (mm) and mean values were calculated. The experiments were performed in triplicates.

The nature of assay [2]: DPPH free radical scavenging assay. Conditions: for DPPH IC50: linear regression of % scavenging vs concentration. Type of assay: biochemical. As for the experimental part: According to the Brand-Williams assay DPPH (2, 2-diphenyl-1-picrylhydrazyl) free radical scavenging activity of morin was determined. DPPH and compounds stock solutions (1 mg/mL) were prepared in 100 mL methanol with serial dilutions of […], 62.5, 250, 500, and 1000 µg/mL. After that, 0.1 mL morin was mixed with 3.0 mL DPPH solution and incubated at 23 °C for 30 min. Standard ascorbic acid solution was also prepared in the same way using as a positive control. Finally, absorbance was measured at 517 nm via UV spectrophotometer. Results were taken in a set of three experiments and represented as mean ± SEM. Percent free radicals scavenging potential was calculated according to the following Equation (1): (1) % Free radicals Scavenging potential = Blank sample absorbance−sample absorbance/Blank sample absorbance×100
All the in vitro and in vivo experiments were analyzed in three replicates and determined as mean ± SEM. Student’s t-test and one way ANOVA followed by Dunnett’s post hoc multiple comparison test was used. p ≤ 0.05 were considered as significant. Linear regression analysis was used to calculate the IC50 value for % DPPH, ABTS, α-amylase, and α-glucosidase inhibition against the different concentrations of the test samples by means of Excel program 2007.

Another assay has as its system Proteus mirabilis. Put plainly: Broth dilution MIC determination. To be noted: 37 °C, 24 h, read-out: Minimum Inhibitory Concentrations. Type of assay: cell-based. Here is the method: (§1) Antibacterial potential of isolated compound was investigated against both Gram-positive and Gram-negative bacterial strains; Escherichia coli, Bacillus cereus, Salmonella typhi, Klebsiella pneumonia, Pseudomonas aeruginosa and Proteus mirabilis. Bacterial strains were provided by the Department of Pharmacy, University of Malakand, Khyber Pakhtunkhwa, Pakistan, and were kept at 4 °C in agar slants in freeze-dried condition until further use.
(§2) Both Gram-positive and Gram-negative bacterial strains Escherichia coli, Bacillus cereus, Salmonella typhi, Klebsiella pneumonia, Pseudomonas aeruginosa and Proteus mirabilis organism viable count per mL in the stock suspension was determined using surface viable counting technique. About 10^8–10^9 colony-forming units (CFU) per mL were used as inoculum in subsequent experiments. A fresh stock suspension was used each time.
(§3) Minimum inhibitory concentrations (MICs) of morin, phloroglucinol, and 1-hexyl benzene were determined using broth dilution method, following the Clinical and Laboratory Standards Institute (CLSI) guidelines. Stock solutions of morin, phloroglucinol, and 1-hexyl benzene were prepared in dimethylsulphoxide (DMSO). The serial dilutions from the stock solution were made ranging from 500 to 3.90 μg/mL using Mueller–Hinton broth. Sterile centrifuge tubes were arranged in sets of rows for each bacterial inoculum to cover the different concentration of isolated compounds in triplicate. The standard bacterial stock suspension 10^8–10^9 CFU/mL, in 100 μL were inoculated into each tube. A sterility control tube and a growth control tube were also incubated (for each strain). The tubes were incubated at 37 °C for 24 h. After incubation, 40 μL of a 0.4 mg/mL solution of para iodonitrotetrazolium (INT) chloride was added to each tube as an indicator of microbial growth. […] The evaluation for the inhibition of microbial growth was based on the color change of INT to pink, while no color change indicates the absence of growth. The MIC is the lowest concentration of the compounds at which there is no visible growth in the tubes. The concentration that inhibited bacterial growth completely (the first clear tube) was taken as the MIC value. Experiments were performed in triplicate and mean values are presented.
(§4) In order to, determine the sensitivity of the bacterial strains, positive control experiments were conducted, taking ampicillin at a starting concentration of 0.10 mg/mL in sterile water while the final concentrations for these experiments ranged from 25.00 to 0.19 μg/mL. A negative control experiment was conducted using only DMSO.
(In broth dilution the organism is exposed to a series of concentrations in liquid medium.)

The test system of a further assay is Klebsiella pneumonia. Put plainly: Broth dilution MIC determination. To be noted: Klebsiella pneumoniae, 37 °C, 24 h, read-out: Minimum Inhibitory Concentrations. Type of assay: cell-based. As for the experimental part:
as §1, §2, §3, §4

The test system of a further assay is Escherichia coli. Put plainly: Broth dilution MIC determination. The assay is classed as cell-based. Conditions: 37 °C, 24 h, read-out: Minimum Inhibitory Concentrations. As for the experimental part: as §1, §2, §3, §4
The test system of a further assay is Bacillus cereus. Put plainly: Broth dilution MIC determination. Type of assay: cell-based. Conditions: 37 °C, 24 h, read-out: Minimum Inhibitory Concentrations. As for the experimental part: as §1, §2, §3, §4
The subject of a further assay is Pseudomonas aeruginosa. Put plainly: Broth dilution MIC determination. Conditions: 37 °C, 24 h, read-out: Minimum Inhibitory Concentrations. Type of assay: cell-based. Here is the method: as §1, §2, §3, §4
Assay [3] deals with Staphylococcus aureus. Put plainly: Broth dilution MIC determination. Type of assay: cell-based. To be noted: 37 °C, 24 h, read-out: Minimum Inhibitory Concentrations. Here is the method: as §3, with “Stock” for “Minimum inhibitory concentrations (MICs) of morin, phloroglucinol, and 1-hexyl benzene were determined using broth dilution method, following the Clinical and Laboratory Standards Institute (CLSI) guidelines. Stock”, “The serial dilutions from the stock solution were made ranging from 500 to 3.90 μg/mL using Mueller–Hinton broth.” left out, “The standard bacterial stock suspension 10^8–10^9 CFU/mL, in 100 μL were inoculated into each tube.” left out, “presented. […] A negative control experiment was conducted using only DMSO.” for “presented.”

Assay [4] is described as follows: DPPH free radical scavenging assay. The assay is classed as biochemical. Conditions: 125 µg/mL. Background: DPPH is a stable violet radical that fades when it is reduced.
The next assay relates to Salmonella typhi. Put plainly: Broth dilution MIC determination. The assay is classed as cell-based. To be noted: Salmonella enterica, 24 h, read-out: Minimum Inhibitory Concentrations.

`CCCCCCc1ccccc1` [1-Hexyl benzene, 1-hexylbenzene]: the “Zone of Inhibition” value in the assay with Staphylococcus aureus [1] is listed as 3.4 ± 0.4 mm. For the same compound, the zone of inhibition at 100 µg/mL with Staphylococcus aureus [1] is 3.4 ± 0.4 mm. The “% DPPH Scavenging Mean ± SEM” value in assay [2] (31.05 µg/mL) came out at 28 ± 1.1 %; in assay [2] (62.5 µg/mL), 35 ± 0.4 %; in assay [2] (250 µg/mL), 46 ± 0.5 %; in assay [2] (500 µg/mL) it was 53 ± 2.1 %; in [2] (1000 µg/mL), 59 ± 1.5 %; in assay [4], 40 ± 1.1 %. Besides, the “DPPH IC50” value in assay [2] came to 118 µg/mL. Also, the MIC in the assay on Proteus mirabilis came to 250 ± 1.2 µg/mL (≈ 1540 µM); with Klebsiella pneumonia, 178 ± 2.2 µg/mL (≈ 1100 µM); with Escherichia coli it was 95 ± 2.1 µg/mL (≈ 585 µM); in the assay with Bacillus cereus it was 135 ± 1.5 µg/mL (≈ 832 µM); in the assay on Pseudomonas aeruginosa, 200 ± 1.5 µg/mL (≈ 1230 µM); in the assay on Staphylococcus aureus [3], 205 ± 2.1 µg/mL (≈ 1260 µM). Further, the MIC in the assay on Salmonella typhi worked out at 112 ± 1.6 µg/mL (≈ 690 µM).

Consider `O=c1c(O)c(-c2ccc(O)cc2O)oc2cc(O)cc(O)c12` [Morin, 2-(2,4-Dihydroxyphenyl)-3,5,7-trihydroxychromen-4-one], for which the “Zone of Inhibition” value with Staphylococcus aureus [1] amounted to 13 ± 0.4 mm. Also, the zone of inhibition at 100 µg/mL with Staphylococcus aureus [1] was found to be 13 ± 0.4 mm. In addition, the “% DPPH Scavenging Mean ± SEM” value in assay [2] (31.05 µg/mL) was 54 ± 0.5 %; in assay [2] (62.5 µg/mL) it was 59 ± 1.3 %; in assay [2] (250 µg/mL) it was 76 ± 1.0 %; in [2] (500 µg/mL), 83 ± 0.5 ^ns %; in assay [2] (1000 µg/mL) it was 88± 1.1% and 88 ± 1.1 ^ns %; in assay [4], 68 ± 1.2 %. In addition, the “DPPH IC50” value in assay [2] is 37 µg/mL. Also, the MIC in the assay with Proteus mirabilis turned out to be 55 ± 1.4 µg/mL (≈ 182 µM); in the assay on Klebsiella pneumonia it was 30 ± 1.4 µg/mL (≈ 99.3 µM); in the assay on Escherichia coli, 25 ± 1.1 µg/mL (≈ 82.7 µM); with Bacillus cereus, 21 ± 1.2 µg/mL (≈ 69.5 µM); in the assay with Pseudomonas aeruginosa, 44 ± 1.5 µg/mL (≈ 146 µM); with Staphylococcus aureus [3], 68 ± 1.3 µg/mL (≈ 225 µM). Besides, in the assay with Salmonella typhi, the MIC worked out at 28 ± 1 µg/mL (≈ 92.6 µM).

`Oc1cc(O)cc(O)c1` [Phloroglucinol, Benzene-1,3,5-triol]: the “Zone of Inhibition” value in the assay on Staphylococcus aureus [1] is 9.5 ± 2.1 mm. The compound further displayed a zone of inhibition at 100 µg/mL with Staphylococcus aureus [1] of 9.5 ± 2.1 mm. The “% DPPH Scavenging Mean ± SEM” value in assay [2] (31.05 µg/mL) is listed as 32 ± 0.5 %; in [2] (62.5 µg/mL), 36 ± 1.1 %; in [2] (250 µg/mL), 51 ± 1.0 %; in [2] (500 µg/mL), 57 ± 1.0 %; in [2] (1000 µg/mL), 67 ± 0.4 %; in [4], 40 ± 0.5 %. Also, in assay [2], the “DPPH IC50” value is recorded as 105 µg/mL. Further, the MIC worked out at 205 ± 1.5 µg/mL (≈ 1630 µM) in the assay with Proteus mirabilis; 166 ± 1.5 µg/mL (≈ 1320 µM) in the assay on Klebsiella pneumonia; 80 ± 1.4 µg/mL (≈ 634 µM) with Escherichia coli; 105 ± 1.6 µg/mL (≈ 833 µM) with Bacillus cereus; 180 ± 2.1 µg/mL (≈ 1430 µM) in the assay with Pseudomonas aeruginosa; 192 ± 2.3 µg/mL (≈ 1520 µM) in the assay with Staphylococcus aureus [3]. Besides, the MIC in the assay on Salmonella typhi worked out at 175 ± 2 µg/mL (≈ 1390 µM).
